Data published in PubChem BioAssay AID192 (DTP/NCI, 2004).
Inconclusive results and toxic doses are left out.

Tested on: BDF1 mice, B16 melanoma ip, median survival T/C
Assay: NCI In Vivo Anticancer Drug Screen. Data for tumor model B16 Melanoma (intraperitoneal) in B6D2F1 (BDF1) mice
Conditions: endpoint: median survival time, higher = longer survival
Procedure, shortened: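 In this screen, activity was judged from survival or tumor size in treated versus vehicle-treated tumor-bearing mice, reported as T/C.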

[1] = dose: 12.5 mg/kg/injection, schedule: Q01DX009 (ip), vehicle: Klucel (hydroxypropylcellulose) (HPC)
[2] = dose: 50.0 mg/kg/injection, schedule: Q01DX009 (ip), vehicle: Klucel (hydroxypropylcellulose) (HPC)
[3] = dose: 100.0 mg/kg/injection, schedule: Q01DX009 (ip), vehicle: Klucel (hydroxypropylcellulose) (HPC)
[4] = dose: 200.0 mg/kg/injection, schedule: Q01DX009 (ip), vehicle: Klucel (hydroxypropylcellulose) (HPC)
[5] = dose: 400.0 mg/kg/injection, schedule: Q01DX009 (ip), vehicle: Klucel (hydroxypropylcellulose) (HPC)
[6] = dose: 6.0 mg/kg/injection, schedule: Q01DX009 (ip), vehicle: Klucel (hydroxypropylcellulose) (HPC)
[7] = dose: 12.0 mg/kg/injection, schedule: Q01DX009 (ip), vehicle: Klucel (hydroxypropylcellulose) (HPC)
[8] = dose: 100.0 mg/kg/injection, schedule: Q04DX003 (ip), vehicle: Klucel (hydroxypropylcellulose) (HPC)
[9] = dose: 200.0 mg/kg/injection, schedule: Q04DX003 (ip), vehicle: Klucel (hydroxypropylcellulose) (HPC)
[10] = dose: 100.0 mg/kg/injection, schedule: Q01DX009 (ip), vehicle: saline with Tween-80
[11] = dose: 200.0 mg/kg/injection, schedule: Q01DX009 (ip), vehicle: saline with Tween-80

For `CNc1nc(NC)nc(NC)n1`, the T/C [1] was 106 % of control, the T/C (dose: 25.0 mg/kg/injection, schedule: Q01DX009 (ip), vehicle: Klucel (hydroxypropylcellulose) (HPC)) was 118 % of control and the T/C [2] was 100 % of control. The T/C [3] was 109 % of control.

`C(/C=C/c1ccccc1)=Nc1ccc2c(c1)Cc1ccccc1-2` was tested, and the T/C [3] was 96 % of control, the T/C [4] was 90 % of control and the T/C [5] was 87 % of control.

In the case of `CC1CCC[N-]C1.CC1CCC[N-]C1.CC1CCC[N-]C1.CC1CCC[N-]C1.[Cl][Rh][Cl]` (stereo not given), the T/C (dose: 3.0 mg/kg/injection, schedule: Q01DX009 (ip), vehicle: Klucel (hydroxypropylcellulose) (HPC)) is reported as 111 % of control, the T/C [6] is reported as 110 % of control and the T/C [7] is reported as 115 % of control.

In the case of `CCN(CC)CCC1CCNCC1`, the T/C (dose: 6.25 mg/kg/injection, schedule: Q01DX009 (ip), vehicle: saline) is reported as 112 % of control, the T/C (dose: 12.5 mg/kg/injection, schedule: Q01DX009 (ip), vehicle: saline) is reported as 112 % of control and the T/C (dose: 25.0 mg/kg/injection, schedule: Q01DX009 (ip), vehicle: saline) is reported as 106 % of control.

With `COc1ccc(C(C)=O)cc1N` the T/C [8] was 100 % of control, the T/C [9] was 97 % of control and the T/C (dose: 400.0 mg/kg/injection, schedule: Q04DX003 (ip), vehicle: Klucel (hydroxypropylcellulose) (HPC)) was 95 % of control.

For `Cc1ccc([I+]c2ccc(C)cc2C)c(C)c1`, the T/C (dose: 0.18 mg/kg/injection, schedule: Q01DX009 (ip), vehicle: Klucel (hydroxypropylcellulose) (HPC)) was 114 % of control, the T/C (dose: 0.37 mg/kg/injection, schedule: Q01DX009 (ip), vehicle: Klucel (hydroxypropylcellulose) (HPC)) was 92 % of control and the T/C (dose: 0.75 mg/kg/injection, schedule: Q01DX009 (ip), vehicle: Klucel (hydroxypropylcellulose) (HPC)) was 87 % of control. For the same molecule, the T/C [6] was 90 % of control.

`O=C(Nc1ccccc1)OCC(Cl)(Cl)Cl` was tested, and the T/C [3] was 114 % of control, the T/C [4] was 108 % of control and the T/C [5] was 102 % of control.

`O=c1[nH]cc(N(CCCl)CCCl)c(=O)[nH]1` was tested, and the T/C (dose: 0.05 mg/kg/injection, schedule: Q01DX009 (ip), vehicle: saline with Tween-80) was 95 % of control, the T/C (dose: 0.08 mg/kg/injection, schedule: Q01DX009 (ip), vehicle: saline with Tween-80) was 105 % of control and the T/C (dose: 0.14 mg/kg/injection, schedule: Q01DX009 (ip), vehicle: saline with Tween-80) was 112 % of control. The T/C (dose: 0.19 mg/kg/injection, schedule: Q01DX009 (ip), vehicle: saline) was 107 % of control, the T/C (dose: 0.65 mg/kg/injection, schedule: Q01DX009 (ip), vehicle: saline with Tween-80) was 170 % of control and the T/C (dose: 1.1 mg/kg/injection, schedule: Q01DX009 (ip), vehicle: saline with Tween-80) was 205 % of control. The T/C (dose: 1.5 mg/kg/injection, schedule: Q01DX009 (ip), vehicle: saline) was 185 % of control.

In the case of `CCN(CC)CC(C)(C)CO`, the T/C (dose: 50.0 mg/kg/injection, schedule: Q01DX009 (ip), vehicle: saline with Tween-80) is reported as 99 % of control, the T/C [10] is reported as 101 % of control and the T/C [11] is reported as 89 % of control.

For `O=C(CC(NC(=O)OCc1ccccc1)c1nn[nH]n1)OCc1ccccc1` (stereo not given), the T/C (dose: 66.0 mg/kg/injection, schedule: Q01DX009 (ip), vehicle: saline with Tween-80) was 99 % of control, the T/C [10] was 107 % of control and the T/C (dose: 150.0 mg/kg/injection, schedule: Q01DX009 (ip), vehicle: saline with Tween-80) was 100 % of control.

With `O=C1C=CC(=O)c2c(Cl)ccc(O)c21` the T/C (dose: 0.63 mg/kg/injection, schedule: Q01DX009 (ip), vehicle: Klucel (hydroxypropylcellulose) (HPC)) was 90 % of control and the T/C (dose: 1.25 mg/kg/injection, schedule: Q01DX009 (ip), vehicle: Klucel (hydroxypropylcellulose) (HPC)) was 95 % of control.

`Cc1cc(C(C)C)cc(C(C)C)c1` was tested, and the T/C (dose: 6.25 mg/kg/injection, schedule: Q04DX003 (ip), vehicle: Klucel (hydroxypropylcellulose) (HPC)) was 102 % of control, the T/C (dose: 12.5 mg/kg/injection, schedule: Q04DX003 (ip), vehicle: Klucel (hydroxypropylcellulose) (HPC)) was 108 % of control and the T/C (dose: 25.0 mg/kg/injection, schedule: Q04DX003 (ip), vehicle: Klucel (hydroxypropylcellulose) (HPC)) was 105 % of control. The T/C (dose: 50.0 mg/kg/injection, schedule: Q04DX003 (ip), vehicle: Klucel (hydroxypropylcellulose) (HPC)) was 88 % of control, the T/C [8] was 98 % of control and the T/C [9] was 97 % of control.

`CCCCNc1ccc(C(=O)O)cc1` was tested, and the T/C (dose: 100.0 mg/kg/injection, schedule: Q04DX003 (ip), vehicle: gum acacia) was 97 % of control, the T/C (dose: 200.0 mg/kg/injection, schedule: Q04DX003 (ip), vehicle: gum acacia) was 97 % of control and the T/C (dose: 400.0 mg/kg/injection, schedule: Q04DX003 (ip), vehicle: gum acacia) was 86 % of control.

`O=c1oc(-c2ccccc2I)nc2ccccc12` was tested, and the T/C [3] was 99 % of control and the T/C [4] was 94 % of control.

In the case of `CS(=O)(=O)OCCN(CCOS(C)(=O)=O)c1ccc(C=Nc2ccc3oc(=O)ccc3c2)cc1`, the T/C (dose: 6.25 mg/kg/injection, schedule: Q01DX009 (ip), vehicle: Klucel (hydroxypropylcellulose) (HPC)) is reported as 120 % of control, the T/C [1] is reported as 118 % of control and the T/C [2] is reported as 118 % of control.

For `CCCC1(CCC)c2ccccc2C(CCl)(OCC)c2ccccc21`, the T/C (dose: 12.5 mg/kg/injection, schedule: Q01DX009 (ip), vehicle: other) was 92 % of control, the T/C (dose: 25.0 mg/kg/injection, schedule: Q01DX009 (ip), vehicle: other) was 102 % of control and the T/C (dose: 50.0 mg/kg/injection, schedule: Q01DX009 (ip), vehicle: other) was 100 % of control. For the same molecule, the T/C (dose: 75.0 mg/kg/injection, schedule: Q01DX009 (ip), vehicle: other) was 86 % of control and the T/C (dose: 300.0 mg/kg/injection, schedule: Q01DX009 (ip), vehicle: other) was 86 % of control.

`CC(=O)n1cc(F)c(=O)[nH]c1=O` was tested, and the T/C (dose: 5.3 mg/kg/injection, schedule: Q01DX009 (ip), vehicle: Klucel (hydroxypropylcellulose) (HPC)) was 91 % of control, the T/C (dose: 8.0 mg/kg/injection, schedule: Q01DX009 (ip), vehicle: Klucel (hydroxypropylcellulose) (HPC)) was 91 % of control and the T/C [7] was 104 % of control. For the same molecule, the T/C (dose: 18.0 mg/kg/injection, schedule: Q01DX009 (ip), vehicle: Klucel (hydroxypropylcellulose) (HPC)) was 120 % of control and the T/C (dose: 27.0 mg/kg/injection, schedule: Q01DX009 (ip), vehicle: Klucel (hydroxypropylcellulose) (HPC)) was 114 % of control.

In the case of `CS(=O)(=O)c1cc([N+](=O)[O-])cc([N+](=O)[O-])c1Cl`, the T/C (dose: 0.1 mg/kg/injection, schedule: Q01DX009 (ip), vehicle: saline) is reported as 93 % of control, the T/C (dose: 0.2 mg/kg/injection, schedule: Q01DX009 (ip), vehicle: saline) is reported as 93 % of control and the T/C (dose: 0.4 mg/kg/injection, schedule: Q01DX009 (ip), vehicle: saline) is reported as 100 % of control. For the same molecule, the T/C (dose: 0.8 mg/kg/injection, schedule: Q01DX009 (ip), vehicle: saline) was 95 % of control, the T/C (dose: 1.25 mg/kg/injection, schedule: Q01DX009 (ip), vehicle: saline with Tween-80) was 91 % of control and the T/C (dose: 2.5 mg/kg/injection, schedule: Q01DX009 (ip), vehicle: saline with Tween-80) was 86 % of control.

`Cc1cc2ncn(C(=O)Nc3ccccc3)c2cc1C` was tested, and the T/C [10] was 100 % of control, the T/C [11] was 95 % of control and the T/C (dose: 400.0 mg/kg/injection, schedule: Q01DX009 (ip), vehicle: saline with Tween-80) was 88 % of control.

In the case of `Cc1ccc(NS(=O)(=O)c2ccccc2)cc1Cl`, the T/C [4] is reported as 90 % of control and the T/C [5] is reported as 88 % of control.

For `CCC(=O)c1ccccc1N`, the T/C [3] was 97 % of control and the T/C [4] was 98 % of control.

`C=C(C)C12CC(C)C34OC5(CCCCCCCC(C)C6C(C)C(OC(=O)c7ccccc7)C(O)(C(O)C7(COC(=O)CCCCCCCCCCCCCCC)OC7C3C1O5)C64)O2` (stereo not given) was tested, and the T/C (dose: 1.5 micrograms/kg/injection, schedule: Q01DX009 (ip), vehicle: saline) was 107 % of control, the T/C (dose: 1.9 micrograms/kg/injection, schedule: Q01DX009 (ip), vehicle: Klucel (hydroxypropylcellulose) (HPC)) was 102 % of control and the T/C (dose: 3.1 micrograms/kg/injection, schedule: Q01DX009 (ip), vehicle: saline) was 100 % of control. The T/C (dose: 3.8 micrograms/kg/injection, schedule: Q01DX009 (ip), vehicle: Klucel (hydroxypropylcellulose) (HPC)) was 88 % of control, the T/C (dose: 6.2 micrograms/kg/injection, schedule: Q01DX009 (ip), vehicle: saline) was 104 % of control and the T/C (dose: 7.5 micrograms/kg/injection, schedule: Q01DX009 (ip), vehicle: Klucel (hydroxypropylcellulose) (HPC)) was 98 % of control. For the same molecule, the T/C (dose: 12.5 micrograms/kg/injection, schedule: Q01DX009 (ip), vehicle: saline) was 95 % of control, the T/C (dose: 15.0 micrograms/kg/injection, schedule: Q01DX009 (ip), vehicle: Klucel (hydroxypropylcellulose) (HPC)) was 87 % of control and the T/C (dose: 25.0 micrograms/kg/injection, schedule: Q01DX009 (ip), vehicle: saline) was 102 % of control. For the same molecule, the T/C (dose: 50.0 micrograms/kg/injection, schedule: Q01DX009 (ip), vehicle: saline) was 96 % of control.
